These compounds were tested against T1, human SCD1 (hSCD-1) (Homo sapiens, UniProt O00767) (assay: SCD enzyme activity assay, reconstituted human SCD1 (hSCD-1)).
T1 construct: made in house; host or cells: baculovirus/Sf9
T1 sequence (O00767 1-359): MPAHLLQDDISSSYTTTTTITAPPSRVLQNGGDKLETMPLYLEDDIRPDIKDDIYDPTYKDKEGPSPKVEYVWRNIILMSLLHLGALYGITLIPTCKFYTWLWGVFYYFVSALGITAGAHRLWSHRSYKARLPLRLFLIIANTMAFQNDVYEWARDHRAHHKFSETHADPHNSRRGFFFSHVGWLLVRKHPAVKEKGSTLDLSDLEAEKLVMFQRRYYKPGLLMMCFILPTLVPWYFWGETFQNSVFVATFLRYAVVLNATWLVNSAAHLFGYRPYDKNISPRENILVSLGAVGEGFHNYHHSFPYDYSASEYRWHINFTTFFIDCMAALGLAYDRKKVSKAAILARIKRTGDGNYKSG
Format: biochemical
Protocol: The potency of compounds of formula I against the stearoyl-CoA desaturase was determined by measuring the conversion of radiolabeled stearoyl-CoA to oleoyl-CoA using rat liver microsome or human SCD1 (hSCD-1) following previously published procedures with some modifications (Joshi, et al., J. Lipid Res., 18: 32-36 (1977); Talamo, et al., Anal. Biochem, 29: 300-304 (1969)). Liver microsome was prepared from male Wistar or Sprague Dawley rats on a high carbohydrate diet for 3 days (LabDiet #5803, Purina). The livers were homogenized (1:10 w/v) in a buffer containing 250 mM sucrose, 1 mM EDTA, 5 mM DTT and 50 mM Tris-HCl (pH 7.5). After a 100,000×g centrifugation for 60 min, the liver microsome pellet was suspended in a buffer containing 100 mM sodium phosphate, 20% glycerol, 2 mM DTT, and stored at −78° C. Human SCD1 desaturase system was reconstituted using human SCD1 from a baculovirus/Sf9 expression system, cytochrome B5 and cytochrome B5 reductase. Typically, test compound in 2 μL DMSO was incubated for 15 min at room temperature with 180 μL of the SCD enzyme in a buffer containing 100 mM Tris-HCl (pH 7.5), ATP (5 mM), Coenzyme-A (0.1 mM), Triton X-100 (0.5 mM) and NADH (2 mM). The reaction was initiated by the addition of 20 μL of [^3H]-stearoyl-CoA (final concentration=2 μM, radioactivity concentration=1 μCi/mL). After 10 min, the reaction mixture (80 μL) was mixed with a calcium chloride/charcoal aqueous suspension (100 μL charcoal (10% w/v) plus 25 μL CaCl2 (2N). After centrifugation to precipitate the radioactive fatty acid species, tritiated water released from 9,10-[^3H]-stearoyl-CoA by the SCD enzyme was quantified on a scintillation counter.

IC50 [nM]	Compound
10	O=C(O)Cn1nnc(-c2cnc(N3CC4CN(c5cc(OC(F)(F)F)ccc5Cl)CC4C3)s2)n1 (centres unmarked)
12	O=C(O)Cn1nnc(-c2cnc(N3CC4CN(c5cc(F)ccc5Cl)CC4C3)s2)n1 (centres unmarked)
27	O=C(O)Cn1nnc(-c2cc(N3CC4CN(c5cc(F)ccc5Cl)CC4C3)no2)n1 (centres unmarked)
13	O=C(O)Cn1nnc(-c2cnc(N3CC4CN(c5cc(Cl)cc(F)c5Cl)CC4C3)s2)n1 (centres unmarked)
45	O=C(O)Cn1nnc(-c2cnc(N3CC4(CCN(c5cc(F)ccc5Cl)CC4)C3)s2)n1
11	O=C(O)Cn1nnc(-c2cnc(N3CC4(C3)CN(c3cc(F)ccc3Cl)C4)s2)n1
13	O=C(O)Cn1nnc(-c2cnc(N3CC4CN(c5cc(Cl)ccc5Cl)CC4C3)s2)n1 (centres unmarked)
14	O=C(O)Cn1nnc(-c2cnc(N3CC4CN(c5cc(C(F)(F)F)ccc5Br)CC4C3)s2)n1 (centres unmarked)
161	O=C(O)Cn1nnc(-c2cnc(N3CCC4(CCN(c5ccccc5Cl)C4)C3)s2)n1 (centres unmarked)
77	O=C(O)Cn1nnc(-c2cnc(N3CC4CN(c5cc(F)ccc5Br)CC4C3)nc2)n1 (centres unmarked)
39	O=C(O)Cn1nnc(-c2cnc(N3CCC4(CC3)CN(c3cc(F)ccc3Cl)C4)s2)n1

From patent US20120010186A1, “HETEROCYCLIC COMPOUNDS AS INHIBITORS OF STEAROYL-COENZYME A DELTA-9 DESATURASE” (MERCK FROSST CANADA LTD., priority 2009, published 2012)
